According to patent US20120064072A1, “Combination Cancer Therapy Comprising Administration of an EGFR Inhibitor and an IGF-1R Inhibitor” (priority 2009, published 2012):

Experiments:
[1] = tested on: H292 (NSCLC) human tumor xenograft; test: Treatment beyond progression (TBP), H292 xenograft model; assay type: in vivo, mice
Method: Anti-tumor efficacy was evaluated using mouse xenograft tumor models derived from GEO and H292 cells. Female athymic nude nu/nu CD-1 mice (6-8 wks, 22-29 g) were obtained from Charles River Laboratories (Wilmington, Mass.). Animals were allowed to acclimate for a minimum of one week prior to initiation of a study. Throughout the studies, animals were allowed sterile rodent chow and water ad libitum, and immunocompromised animals were maintained under specific pathogen free conditions. […] Tumor cells were harvested from cell culture flasks during exponential cell growth, washed twice with sterile PBS, counted and resuspended in PBS to a suitable concentration before s.c. implantation on the right flank of female nu/nu CD-1 mice. Tumors were established to 200+/−50 mm^3 in size before randomization into treatment groups of 8 mice each. Body weights were determined twice weekly along with tumor volume {V=[length×(width)^2]/2} measurements using Vernier calipers during the study. Tumor growth inhibition (% TGI) was determined by the following formula: % TGI={1−[(Tt/T0)/(Ct/C0)]/1-[C0/Ct]}×100. Tt is tumor volume of treated at time t; T0 is tumor volume of treated at time 0; Ct is tumor volume of control at time t; and C0 is tumor volume of control at time 0. […] Furthermore, we evaluated the effect of drug treatment on tumor growth delay (GD or T-C value), defined as the difference in time (days) required for the treated tumors (T) to reach 400% of the initial tumor volume compared with those of the control group (C). […] At the time of tumor progression on single agent erlotinib treatment mice were randomized into additional study groups of 8 mice each. Individual tumor volumes were calculated, as stated above, for all mice throughout the study and the time in days until each mouse doubled its tumor volume from the time of re-randomization was determined by linear regression analysis of the entire data set. Statistical evaluation of the data was determined by Kaplan-Meier Survival analysis.
In two separate experiments (FIGS. 9-11 and FIGS. 13-15), NCI-H292 cells were harvested from cell culture flasks during exponential cell growth, washed twice with sterile PBS, counted and resuspended in PBS to a suitable concentration before s.c. implantation on the right flank of female nu/nu CD-1 mice. Tumors were established to 200+/−50 mm^3 in size before randomization into vehicle control or erlotinib treatment groups.

[2] = tested on: Erk; test: H292 model Western blot analysis; assay type: in vivo, human; conditions: H292, erlotinib 100 mg/kg per day eighteen days, FIG. 6
Method: (§1) In untreated H292 tumors and tumors treated with erlotinib (100 mg/kg per day) for eighteen days, the levels of total and phosphorylated Akt and Erk were measured and quantitated in terms of the ratio of phosphor to total protein in each sample and then plotted as compared to levels observed in vehicle control treated tumors (assumed to be 100%).

[3] = tested on: Akt; test: H292 model Western blot analysis; assay type: in vivo, human; conditions: H292, erlotinib 100 mg/kg per day eighteen days, FIG. 6
Method: as §1

[4] = tested on: Erk; test: GEO model Western blot analysis; assay type: in vivo, human; conditions: erlotinib 100 mg/kg per day eighteen days, FIG. 2
Method: as §1, with “GEO” for “H292”

[5] = tested on: Akt; test: GEO model Western blot analysis; assay type: in vivo, human; conditions: erlotinib 100 mg/kg per day eighteen days, FIG. 2
Method: as §1, with “GEO” for “H292”

[6] = tested on: GEO (CRC) human tumor xenograft; test: Treatment beyond progression (TBP), GEO xenograft model; assay type: in vivo, mice; conditions: after progression on 18 days erlotinib, erlotinib maintenance 100 mg/kg per day, or with OSI-906 15 mg/kg per day added, FIG. 4
Method: The H292 (NSCLC) and GEO (CRC) human tumor xenograft models were used to evaluate the efficacy of EGFR inhibitor (erlotinib) maintenance therapy with and without the addition of IGF-1R inhibitor (OSI-906) therapy following response and subsequent progression on erlotinib monotherapy.
Anti-tumor efficacy was evaluated using mouse xenograft tumor models derived from GEO and H292 cells. Female athymic nude nu/nu CD-1 mice (6-8 wks, 22-29 g) were obtained from Charles River Laboratories (Wilmington, Mass.). Animals were allowed to acclimate for a minimum of one week prior to initiation of a study. […] Tumor cells were harvested from cell culture flasks during exponential cell growth, washed twice with sterile PBS, counted and resuspended in PBS to a suitable concentration before s.c. implantation on the right flank of female nu/nu CD-1 mice. […] Body weights were determined twice weekly along with tumor volume {V=[length×(width)^2]/2} measurements using Vernier calipers during the study. Tumor growth inhibition (% TGI) was determined by the following formula: % TGI={1−[(Tt/T0)/(Ct/C0)]/1-[C0/Ct]}×100. […] Furthermore, we evaluated the effect of drug treatment on tumor growth delay (GD or T-C value), defined as the difference in time (days) required for the treated tumors (T) to reach 400% of the initial tumor volume compared with those of the control group (C). […]

[7] = tested on: pIGF-1R; test: RTK array analysis, GEO model; assay type: in vivo, human; conditions: erlotinib 100 mg/kg per day for eighteen days, all treated tumors, FIG. 1
Method: (§2) In untreated GEO tumors and tumors treated with erlotinib (100 mg/kg per day) for eighteen days, the levels of pEGFR, pIGF-1R, and pIR were measured in terms of median pixel density, as shown in FIG. 1.

[8] = tested on: pIR; test: RTK array analysis, GEO model; assay type: in vivo, human; conditions: erlotinib 100 mg/kg per day for eighteen days, all treated tumors, FIG. 1
Method: as §2

[9] = tested on: pIGF-1R; test: RTK array analysis, H292 model; assay type: in vivo, human; conditions: H292 tumors, erlotinib 100 mg/kg per day eighteen days, progressor tumors vs untreated or non-progressor; FIG. 5
Method: (§3) In untreated H292 tumors and tumors treated with erlotinib (100 mg/kg per day) for eighteen days, the levels of pIGF-1R and pIR were measured in terms of pixel density normalized to phosphotyrosine loading control, as shown in FIG. 5. Tumors that initially responded and then progressed (progressor) show upregulation of both pIGF-1R and pIR as compared to untreated tumors or tumors that continue to respond to erlotinib treatment (non-progressor).

[10] = tested on: pIR; test: RTK array analysis, H292 model; assay type: in vivo, human; conditions: H292 tumors, erlotinib 100 mg/kg per day eighteen days, progressor tumors vs untreated or non-progressor; FIG. 5
Method: as §3

[11] = tested on: H292 (NSCLC) human tumor xenograft; test: Frontline combination treatment, H292 xenograft model; assay type: in vivo, mice; conditions: by 100 days
Method: Anti-tumor efficacy was evaluated using mouse xenograft tumor models derived from GEO and H292 cells. Female athymic nude nu/nu CD-1 mice (6-8 wks, 22-29 g) were obtained from Charles River Laboratories (Wilmington, Mass.). Animals were allowed to acclimate for a minimum of one week prior to initiation of a study. Throughout the studies, animals were allowed sterile rodent chow and water ad libitum, and immunocompromised animals were maintained under specific pathogen free conditions. […] Tumor cells were harvested from cell culture flasks during exponential cell growth, washed twice with sterile PBS, counted and resuspended in PBS to a suitable concentration before s.c. implantation on the right flank of female nu/nu CD-1 mice. […] Body weights were determined twice weekly along with tumor volume {V=[length×(width)^2]/2} measurements using Vernier calipers during the study. Tumor growth inhibition (% TGI) was determined by the following formula: % TGI={1−[(Tt/T0)/(Ct/C0)]/1-[C0/Ct]}×100. […] Furthermore, we evaluated the effect of drug treatment on tumor growth delay (GD or T-C value), defined as the difference in time (days) required for the treated tumors (T) to reach 400% of the initial tumor volume compared with those of the control group (C). […] Statistical evaluation of the data was determined by Kaplan-Meier Survival analysis.

[12] = OSI-906 50 mg/kg per day after taking off erlotinib
[13] = tumors that do not progress on treatment
[14] = tumors that respond and then progress on treatment

Row | SMILES | time to tumor doubling, switching to OSI-906 single agent versus maintaining erlotinib single agent [1, 12] | time to two tumor doublings, switching to OSI-906 single agent versus maintaining erlotinib single agent [1, 12] | median time to one doubling ([1]; first trial, FIG. 10, Kaplan-Meier, after 28 days erlotinib 100 mg/kg per day, combination = erlotinib + OSI-906 15 or 10 mg/kg) [days] | median time to two doublings ([1]; first trial, FIG. 11, Kaplan-Meier, combination = erlotinib + OSI-906 15 or 10 mg/kg) [days] | median time to one doubling ([1]; second trial, FIG. 14, Kaplan-Meier) [days] | median time to two doublings ([1]; second trial, FIG. 15, Kaplan-Meier) [days] | phospho to total Erk versus vehicle control [2, 13] | phospho to total Erk versus vehicle control [2, 14] | phospho to total Akt versus vehicle control [3, 13] | phospho to total Akt versus vehicle control [3, 14] | phospho to total Erk versus vehicle control [4, 13] | phospho to total Erk versus vehicle control [4, 14] | phospho to total Akt versus vehicle control [5, 13] | phospho to total Akt versus vehicle control [5, 14] | median time to tumor doubling following the re-sorting [6] | level of pIGF-1R (median pixel density) compared to untreated tumors [7] | level of pIR (median pixel density) compared to untreated tumors [8] | level of pIGF-1R (pixel density normalized to phosphotyrosine loading control) [9] | level of pIR (pixel density normalized to phosphotyrosine loading control) [10] | mice that doubled their tumor volumes twice [11]
1 | C[C@]1(O)C[C@@H](c2nc(-c3ccc4ccc(-c5ccccc5)nc4c3)c3c(N)nccn32)C1 [OSI-906, cis-3-[8-amino-1-(2-phenyl-quinolin-7-yl)-imidazo[1,5-a]pyrazin-3-yl]-1-methyl-cyclobutanol] | no statistical difference | no statistical difference | – | – | – | – | – | – | – | – | – | – | – | – | – | – | – | – | – | –
2 | C#Cc1cccc(Nc2ncnc3cc(OCCOC)c(OCCOC)cc23)c1 [erlotinib, [6,7-bis(2-methoxyethoxy)-4-quinazolin-4-yl]-(3-ethynylphenyl)amine] | – | – | 20.9 | 41.5 | 20.9 | 45.8 | continued inhibition | no longer inhibiting | continued inhibition | no longer inhibiting | continued inhibition | no longer inhibiting | continued inhibition | no longer inhibiting | about 28 days | upregulation | upregulation | upregulation | upregulation | 7 of 8
